# What was measured:
# crop plants = details: post-emergence, rated after three weeks
# From the text: Emulsifier: 1 part by weight of alkylaryl polyglycol ether
# After three weeks, the degree of damage to the plants is rated in % damage in comparison to the development of the untreated control.
# [1] = system: broad-leaved weeds and weed grasses; assay: Post-emergence test, activity against weeds; type: in vivo; details: test plants 5-15 cm sprayed, rated after three weeks
# From the text: (§1) Solvent: 5 parts by weight of acetone
# weeds [2] = assay: Pre-emergence test, activity against weeds; type: in vivo; details: soil sprayed 24 hours after sowing, rated after three weeks
# From the text: as §1
# Seeds of the test plants are sown in normal soil.
# [3] = log P by reversed-phase HPLC (C 18), acidic range; type: physicochemical; details: for logP: marked a): acidic range
# Procedure: Temperature: 43° C. (a) Mobile phases for the determination in the acidic range: 0.1% aqueous phosphoric acid, acetonitrile; linear gradient from 10% acetonitrile to 90% acetonitrile—the corresponding measurement results are marked ^a) in Table 1.
# weeds [4] = assay: Trial in sown rice (greenhouse), activity against weeds; type: in vivo; details: foliar treatment at 1.5-2-leaf stage of rice, flooded, rated 4 weeks after application
# From the text: as §1
# Plant vessels (dimensions: 20 cm×20 cm×9 cm; surface: 1/200 ar) are filled with soil from a rice field. Seeds of rice and weeds are sown into the soil, which is kept moist. At the 1.5-2-leaf stage of rice, the dilute preparation of active compound is applied as a spray (foliar treatment).
# One day after the treatment, the test vessels are flooded to a water depth of 3 cm. The test batches are then kept flooded (water depth 3 cm).
# rice = assay: Trial in sown rice (greenhouse), tolerance by rice; type: in vivo; details: foliar treatment at 1.5-2-leaf stage of rice, flooded, rated 4 weeks after application
# From the text: as §1
# Plant vessels (dimensions: 20 cm×20 cm×9 cm; surface: 1/200 ar) are filled with soil from a rice field. Seeds of rice and weeds are sown into the soil, which is kept moist.
# The test batches are then kept flooded (water depth 3 cm).
# [5] = 0.1% aqueous phosphoric acid/acetonitrile gradient, HPLC C 18, 43° C.
# [6] = 0.1% aqueous phosphoric acid, acetonitrile, HPLC reversed-phase column (C 18), 43° C.
SMILES,activity against weeds (weeds [2]),"logP [3, 5]",other results
"CN1CCN(C(=O)Nc2c(Cl)ccc(C(=O)C3C(=O)CCCC3=O)c2Cl)C1=O [Example 1-1, N-[2,6-dichloro-3-[(2,6-dioxo-cyclohexyl)-carbonyl]-phenyl]-3-methyl-2-oxo-1-imidazolidinecarboxamide]",strong activity,,"tolerated by crop plants (crop plants): tolerated well; activity against broad-leaved weeds and weed grasses [1]: strong activity; chromatographic logP ([3]; reversed-phase HPLC column (C 18), pH=2.3): 2.07; activity against weeds (weeds [4]): strong activity; tolerated by rice (rice): tolerated well"
CCN1CCN(C(=O)Nc2c(Cl)ccc(C(=O)C3=C(O)CCCC3=O)c2Cl)C1=O [Example 1-2],strong activity,(I-2) logP = 2.33^a),
CON(C)C(=O)Nc1c(Cl)ccc(C(=O)C2=C(O)CCCC2=O)c1Cl [Example 1-3],strong activity,(I-2) logP = 1.97^a),
CN1CCCN(C(=O)Nc2c(Cl)ccc(C(=O)C3=C(O)CCCC3=O)c2Cl)C1=O [Example 1-4],strong activity,(I-2) logP = 2.33^a),
O=C1CCCC(O)=C1C(=O)c1ccc(Cl)c(NC(=O)N2CCOCC2)c1Cl [Example 1-5],strong activity,(I-2) logP = 1.60^a),
CN(C)NC(=O)Nc1c(Cl)ccc(C(=O)C2=C(O)CCCC2=O)c1Cl [Example 1-6],strong activity,(I-2) logP = 1.81^a),
CON(C)C(=O)Nc1c(Cl)ccc(C(=O)C2=C(O)CC(C)(C)CC2=O)c1Cl [Example 4-1],,,"logP [3, 6]: (I-2) logP = 2.54^a)"
CC1(C)CC(=O)C(C(=O)c2ccc(Cl)c(NC(=O)N3CCCCO3)c2Cl)=C(O)C1 [Example 4-69],,,"logP [3, 6]: (I-2) logP = 2.76^a)"
CON(C)C(=O)Nc1c(Cl)ccc(C(=O)C2=C(O)C3CCC(C3)C2=O)c1Cl (stereo not shown) [Example 5-1],,,"logP ([3]; 0.1% aqueous phosphoric acid/acetonitrile gradient, reversed-phase HPLC C 18, 43° C.): (I-2) logP = 2.23^a)"
COC(=O)c1ccc(Cl)c(NC(=O)N2CCOCC2)c1Cl [IIIa-6],,logP = 1.34^a),
COC(=O)c1ccc(Cl)c(NC(=O)NN(C)C)c1Cl [IIIa-7],,logP = 1.64^a),
COC(=O)c1ccc(Cl)c(NC(=O)N2CCN(C)CC2)c1Cl [IIIa-8],,logP = 0.50^a),
CCN(CC)C(=O)Nc1c(Cl)ccc(C(=O)OC)c1Cl [IIIa-9],,logP = 2.02^a),
COC(=O)c1ccc(C(F)(F)F)cc1NC(=O)N(C)OC [IIIa-10],,logP = 3.35^a),
COC(=O)c1ccc(C(F)(F)F)cc1NC(=O)N1CCN(C)C1=O [IIIa-11],,logP = 2.76^a),
CCN(CC)C(=O)Nc1cc(C(F)(F)F)ccc1C(=O)OC [IIIa-17],,logP = 3.10^a),
COC(=O)c1ccc(Cl)c(NC(=O)N2CCCN(CC(C)C)C2=O)c1Cl [IIIa-21],,logP = 3.43^a),
COC(=O)c1ccc(Cl)c(NC(=O)Nn2cnnc2)c1Cl [IIIa-25],,logP = 0.93^a),
